Results: paper PMC8864869, “A short peptide derived from pigment epithelial-derived factor exhibits an angioinhibitory effect” (BMC Ophthalmology, 2022)
“And” between values parts separate entries of the source, which are not always exact repeats. Equal values may be shown once.

Assays:
rat aortic ring = assay: Rat aortic ring assay; settings: 100 μM 7-mer, 5 days
Description: Thoracic aortas were removed from euthanized 10-week-old male Sprague Dawley rats and gently stripped of periaortic fibroadipose tissue. Aortas were sectioned into ~ 1 mm length rings, being manipulated in Medium 200. Matrigel (120 μl) mixed with 24 μl LSGS, 72 μl medium, 200 ng/ml VEGF and 100 μM 7-mer was used to embed the aortic ring and then polymerized in 12-well plates (37 °C for 30 min). Subsequently, 1 ml culture medium supplemented with 100 units/ml penicillin, and […] was added. The cultures were propagated at 37 °C in a humidified incubator for up to 5 days. Sprouts were recorded using an inverted microscope platform (Leica DMI6000B) with bright-field optics. Each ring was scored by three independent observers on a scale 0–3, depending on the degree of vessel sprouting observed (0 = no sprouting, 3 = profuse sprouting).
Fig. 6 The effect of the 7-mer on VEGF-induced microvessel sprouting of aortic ring and corneal neovascularization. a Rat aortic ring assay. Photomicrographs of aortic ring explants after treatment for 5 days (magnification × 40). Sprouting was evaluated on a scale from 0 (no sprouts) to 3 (profuse sprouting). There was no sprouting of vessels from ex vivo aortic rings embedded in Matrigel without LSGS or VEGF. b The 7-mer inhibits VEGF-induced corneal angiogenesis in C57BL/6 mice. […]

HUVECs = assay: Annexin V-FITC apoptosis assay in HUVECs; format: cell-based, human; settings: 20 ng/ml VEGF + peptide (20 μM), 0.5% FBS, 16 h; four independent experiments
Description: Cells were grown in Medium 200 with LSGS (supplement contains 1.9% fetal bovine serum, 3 ng/ml bFGF, 10 μg/ml heparin, 1 μg/ml hydrocortisone, and 10 ng/ml EGF). Culture plates were coated with 2% gelatin. Cells (passages 4–8) were cultured at 37 °C in a humidified atmosphere of 5% CO2. For peptide treatment, HUVECs were cultured in low serum (0.5% FBS) medium containing 20 ng/ml VEGF and 7-mer peptide (20 μM, unless otherwise specified).
Cell apoptosis was examined using a TACS annexin V-FITC kit according to the manufacturer’s instructions for in situ staining. The cell numbers were monitored by counterstaining with Hoechst 33342. Afterward, apoptosis was examined and photographed by a Zeiss epifluorescence microscope (× 100, 10 fields/sample). Images were recorded on Zeiss software.
The experiment was repeated three times. Magnification is × 40. b The 7-mer induces HUVEC apoptosis in the presence of VEGF. Cell apoptosis was analyzed using the Annexin V-FITC Apoptosis Detection kit according to the in situ staining protocol after treatment for 16 h. Double staining with an annexin V-FITC and the fluorescent dye Hoechst 33342 was used to visualize the apoptotic cells (green) and nuclei (blue), respectively. A representative result of four independent experiments is shown. The percentages of apoptotic cells were quantified. ^aP < 0.005 versus VEGF-treated cells

RPMI8226 cells = format: cell-based, human
Description: Human multiple myeloma cells, RPMI8226 were purchased from Bioresource Collection and Research Center (Hsinchu, Taiwan). Cells were cultivated in RPMI1640 medium supplemented with 10% FBS, 50 μg/ml penicillin, 50 μg/ml streptomycin, and 2 mM L-glutamine at 37 °C in a 5% CO2 atmosphere. Cell viability was determined by an MTT assay. […] MTT stock solution added to medium alone was included as a negative control. Aliquots (450 μl) from each sample were transferred to a new well of a 48-well culture plate, 100 μl DMSO added with thorough mixing, and allowed to react at 37 °C for 20 min before reading the absorbance at 570 nm.

JNK = assay: Western blot of phosphorylated JNK in RPMI8226 cells; format: cell-based, human; settings: 10 ng/ml VEGF + 25 μM 7-mer
Text: (§1) Cell lysis and SDS–PAGE were as described previously. Antibodies used in this study were for active p38 MAPK and active JNK (Promega, Madison, WI), p38 MAPK/SAPK2, JNK (Upstate Biotechnology, Lake Placid, NY), p53 (Chemicon, Temecula, CA), bax, p21, cleaved caspase-3 and β-actin (Abcam Ltd., Cambridge, UK). Proteins of interest were detected using the appropriate IgG-horseradish peroxidase-linked secondary antibody (Santa Cruz Biotechnology) and enhanced chemiluminescence reagent (Amersham, Arlington Heights, IL). X-ray films were scanned on a model GS-700 Imaging Densitometer (Bio-Rad, Hercules, CA) and analyzed with Labworks 4.0 software. For quantification, blots from at least three independent experiments were used.
Fig. 3 The 7-mer induces JNK signaling to trigger RPMI8226 cell apoptosis. 3 × 10^5 cells were serum starved for 24 h and then exposed to 10 ng/ml VEGF and 25 μM 7-mer for the indicated time periods. a Western blotting was performed to detect the active phosphorylated forms of JNK (p-JNK) and p38 MAPK (p-p38), shown in the upper panels. Antibodies were then stripped and the blots were re-incubated with anti-JNK and anti-p38 MAPK antibodies (lower panels), respectively, to detect the levels of total JNK and p38 MAPK. b Densitometric analyses from three independent experiments are shown. c Cell were pretreated with 10 μM SP600125 or SB203580 for 10 min and then treated as described above for 24 h and apoptosis was quantified using the annexin V-FITC apoptosis detection kit. *P < 0.0001 versus 7-mer-treated cells

[1] = test system: p53, Bax, p21, cleaved caspase-3; assay: Western blot of p53, Bax, p21 and cleaved caspase-3 in RPMI8226 cells; format: cell-based, human
Text: as §1
Fig. 4 The 7-mer induces JNK signaling to trigger p53/bax/p21^Waf1 expression in RPMI8226 cells. a and b Cell treatments were as described in Fig. 3. Cell lysates were then prepared for western blot analysis of p53, Bax, and p21. Representative blots and densitometric analyses from three independent experiments are shown. ^*P < 0.001 versus 7-mer-treated cells

[2] = 7-mer for 8 h, VEGF-treated RPMI8226 cells, densitometry, three independent experiments

With “7-mer: PEDF Asp64-Ser70, N-acetylated, C-amidated (Ac-DLYRVRS-NH2; UniProt P36955 64-70, looked up, fragment)” the “VEGF-induced outgrowth of sprouts from aortic rings” value (rat aortic ring; 200 ng/ml VEGF, P = 0.001) was “this outgrowth was suppressed”, the “sprouts of aortic rings exposed to LSGS and VEGF” value (rat aortic ring; LSGS + 200 ng/ml VEGF) was “blocked by the 7-mer” and the “apoptotic HUVECs (annexin V-FITC)” value (HUVECs) was 43.0 ± 5.5%. For the same substance, the “cytotoxic effect on RPMI8226 cells in the absence of VEGF” value (RPMI8226 cells) was “neither peptide had a significant cytotoxic effect”, the “MTT value, VEGF-induced RPMI8226 cell proliferation, 1 μM peptide” value (RPMI8226 cells; 10 ng/ml VEGF + 1 μM peptide (lowest concentration), 24 h, mean ± SD) was 101 ± 1.2% and the “anti-VEGF activity of the 7-mer relative to the 34-mer (MTT)” value (RPMI8226 cells; 10 ng/ml VEGF + 25 μM peptide, 24 h) was ~ 1.5 fold. The “MTT value, VEGF-induced RPMI8226 cell proliferation” value (RPMI8226 cells; 10 ng/ml VEGF + 25 μM peptide, 24 h, serum-free medium, solvent-treated/untreated cells set as 100%, mean ± SD, three independent experiments) was 58 ± 4.1% and 57.3% and 54 ± 1.5%, the “dose dependence of cell viability of VEGF-treated RPMI8226 cells” value (RPMI8226 cells; 1, 5, 10 and 25 μM peptide with VEGF, MTT) was “decreased cell viability in a dose-dependent manner” and the “time for which JNK phosphorylation was sustained” value (JNK) was “up to 10 h”. For the same substance, the “time of peak p-p46 JNK” value (JNK) was 2 h, the “p-p46 JNK phosphorylation” value (JNK; time course) was “increase in p-p46 JNK was detected 20 min after 7-mer treatment” and the “Bax protein level compared to solvent control” value [1, 2] was 4.5 ± 0.40 fold. The “p21Waf1 protein level compared to solvent control” value [1, 2] was 5.5 ± 0.43 fold, the “p53 protein level compared to solvent control” value [1, 2] was 3.6 ± 0.39 fold and the “cleaved/active caspase-3” value ([1]; 7-mer treatment for 24 h) was “elevation of cleaved/active caspase-3”.
